Laboratory results taken from US20030188344A1 (priority 2000, published 2003).
“Also recorded” adds a separate entry of the source.

How the values were obtained:
[1] = tested on: VirA expression by native PvirA; details: with AS induction; cited from earlier work
[2] = tested on: A. tumefaciens strain A348/pAC2 and AB140/pAC2; test: kanamycin resistant growth with pAC2 (virB promoter/nptII); type: cell-based; details: for survival on induction plates plus kanamycin: A348/pAC2, 40 μg/ml kanamycin; for kanamycin resistant growth of AB140 compared with wild-type (inducer sensitivity): liquid medium, AB140/pAC2 vs A348/pAC2 (FIG. 9)
Protocol: Mutant Selection. […] Phenolic hypersensitive mutants were selected as follows. Individual colonies of A348/pAC2 were grown overnight in LB broth plus spectinomycin, and the progeny from each colony kept separate to ensure that each mutation was an individual event, not part of a clonal population. The bacteria were subsequently washed in ABIM medium, resuspended to an OD600 of approximately 0.1 and induced overnight in ABIM media plus 100 μM AS. The next day the cells had grown to an approximate OD600 of 1.0 and 2×10^5 to 2×10^6 bacteria were plated onto plates confining ABIM medium containing 10 μM AS and 40 μg/ml kanamycin. Colonies that grew on this selection medium were subsequently assayed for growth on plates containing kanamycin but no phenolic. Colonies that grew under these conditions are constitutive for kanamycin resistance and were not characterized further, while colonies that couldn't survive in this screen were characterized further.
The kanamycin resistance test of selected colonies in response to different doses of phenol was done in the following manner: after one night of induction in ABIM over a range of inducer concentrations, as described above, the bacteria were washed and subcultured into ABIM at a starting OD600 of approximately 0.1. The ABIM included phenolics at a range of concentrations between 0.1-1000 μM. At each concentration of inducer three cultures have kanamycin at a concentration of 20 μg/mL, while one culture has no kanamycin. After overnight culture the OD600 is determined and kanamycin resistant growth as a percentage of control is determined using the following calculation: [formula]

[3] = tested on: leaf explants of Nicotiana tabacum cv Havana 425; test: tobacco leaf tumor (virulence) assay
Protocol: Virulence Assays The capacity of various strains of A. tumefaciens to induce tumors on leaf explants of Nicotiana tabacum cv Havana 425 was tested as described previously. Banta et al., 1994.
In this assay, bacteria and leaf explants are co-cultivated for two days at varying levels of AS and then transferred to antibiotic containing medium that stops bacterial growth but allows plant tumor growth. Banta et al., 1994. In the case of wild-type strain A348, some tumor formation is observed on the leaf explants co-cultivated in the absence of AS in the co-cultivation, as expected because of xenognostic phenols released from the wounded cells (FIG. 10). […] Importantly, the maximum number of tumors formed by both the wild-type strain and AB140 was approximately the same, consistent with the observation that AB140's hypersensitivity is not a result of simple overexpression of the vir genes.

[4] = tested on: vir gene expression in hypersensitive mutants (AB140, AB147); test: vir induction assay, β-galactosidase reporter, phenol hypersensitive mutants; type: cell-based, A. tumefaciens; details: for vir inducing activity / hypersensitivity in mutants: hypersensitive mutants, e.g. AB140, versus wild-type
Protocol: (§1) vir Induction Assay. A. tumefaciens strains were grown overnight at 27° C. to an optical density of about 0.3-0.6 at 600 nm (OD600) in LB medium supplemented win appropriate antibiotics. Cells were then pelleted by centrifugation and resuspended to an OD600 of 0 1 per ml in sterilized induction medium (ABIM. pH 5.5) supplemented with either 1% glucose or 1% glycerol with or without 0.1% arabinose (w/v). The verious phenolic compounds tested were dissolved in a minimal amount of DMSO in water as mM stocks, and diluted with ABIM to the desired concentration (final DMSO concentration was no greater than 0.1%). The bacteria were incubated with at 28° C. for 8-16 hours and subsequently assayed for β-galactosidase activity by the method of Miller, 1972. ED50 values for the inducers evaluated were estimated from such dose response plots. Each assay value reported is the mean of three replicates; error bar indicates one standard deviation from the mean. Data are representative of three similar independent experiments.
To ensure that the mutants hypersensitive to AS were a result of a change in the vir gene induction pathway rather than a mutation in the reporter plasmid pAC2, other methods to analyze vir gene induction and the virulence response were investigated. First, all nine mutants were transformed with pSW209 carrying a virB::lacZ reporter construct. The β-galactosidase activities of all strains were hypersensitive in an AS dose-response study. The observed changes are not due to some artifact of the reporter plasmids as the expression of VirB10, one of the proteins of the virB operon on its Ti plasmid, in cells of AB140 was detectable after induction with 0.3 μM AS. Wild-type cells required 1 μM AS to produce detectable VirB10. Thus, the mutants are hypersensitive to AS when assaying either the virB^P/nptII reporter, the virB::lacZ reporter, or directly assaying expression of VirB10 from the native viral promoter on the Ti plasmid.

VirB10 expression = test: VirB10 immunoblot; type: cell-based, A. tumefaciens
Protocol: Immunoblot. Cultures of different strains were induced overnight in ABIM containing 1% glycerol and 0.1% arabinose and varying phenolic concentrations. Samples from each culture, containing an equivalent OD600, were denatured by boiling in sample buffer for 3-10 minutes, and 10 μL from each sample was loaded onto 10% acrylamide gels and separated via SDSpolyacrylamide gel electrophoresis (PAGE). Proteins were transferred from the acrylamide gel to nitrocellulose purchased from Schleicher and Schell (Keene, N. H.) by electrotransfer. VirB 10 expression was examined using immunoblot procedures and antibodies described in Beaupre et al., 1997.

[5] = tested on: vir gene expression in wild-type strain A348; test: vir induction assay, β-galactosidase reporter, wild-type strain; type: cell-based, A. tumefaciens; details: wild-type A348/pSW209
Protocol: as §1

vir gene expression = vir gene expression inhibition, β-galactosidase (lacZ under vir promoter); type: cell-based, A. tumefaciens
Protocol: Vir Induction Assay. A. tumefaciens strains were grown overnight at 27° C. to an OD of 0.3-0.6 in LB medium supplemented with appropriate antibiotics. Cells were then pelleted by centrifugation and resuspended to an OD of 0.1 per ml in sterilized induction medium (ABIM, pH 5.5) supplemented with either 1% glucose or 1% glycerol. The various inducer and Inhibitor compounds tested were dissolved in a minimal amount of DMSO in water as mM stocks, and diluted with ABIM to the desired concentration (final DMSO concentration was no greater than 0.1%). The bacteria were incubated with at 28° C. for 8-16 hr and subsequently assayed for β-galactosidase activity by the method of Miller (1986). IC50 values for the Inhibitors evaluated were estimated from such dose response plots. Each assay value reported is the mean of three replicates; error bar indicates one standard deviation from the mean. Data are representative of three similar independent studies.
The capacity of 1 to inhibit vir gene expression was tested by monitoring β-galactosidase activity in an A. tumefaciens strain carrying wild-type vir induction genes and a lacZ gene under the control of a vir promoter (Hess et al., 1991). […] A more precise test for specificity was available via the utilization of a plasmid containing a virA gene, the putative AS receptor, which contitutively expressed the vir genes in the absence of AS. […] Therefore, the inhibition by 1 occurs upstrean, of VirA activation.

physchem = type: physicochemical; details: buffer
Protocol: Curiously, 1 appears the most hydrolytically labile of this class of structures, with a measured t1/2<4 hr at pH 5.5, and […] at pH 7. […] Moreover, from estimates of the surface area per seedling, the concentration of 1 around the radicle of one-week-old maize seedlings should be between […] and 10 mM, depending on whether a 10 μ or a 100 μ volume element is used to define the surface hydration. […] This inhibitory zone readily explains the observed difficulty transforming this organ with the bacterium.

occ regulon = occ regulon induction (specificity control); type: cell-based, A. tumefaciens; details: same plasmid; data not shown

SMILES: COc1cc(C(C)=O)cc(OC)c1O [AS, Acetosyringone]
- induction of VirA expression by native PvirA [1]: ~8 fold
- survival on induction plates plus kanamycin ([2]; 30 μM AS): killed
- survival on induction plates plus kanamycin ([2]; 100 μM AS): survive
- kanamycin resistant growth of AB140 compared with wild-type (inducer sensitivity) [2]: one-half log lower concentration
- AS concentration for maximal capacity to induce tumors, relative to wild-type ([3]; hypersensitive mutant AB140 (FIG. 10)): log order lower concentration
- number of tumors formed per infected leaf explant ([3]; wild-type strain A348, increasing phenol in co-cultivation medium (FIG. 10)): significantly increased
- sensitivity to AS compared with wild-type strain A348 ([4]; AB140, 0.1% arabinose present in induction medium): increased
- AS concentration for response compared with wild-type ([4]; AB147 class, absence of arabinose): half-log lower concentration
- vir inducing activity / hypersensitivity in mutants [4]: hypersensitive
- AS concentration giving detectable VirB10 (VirB10 expression; cells of AB140): 0.3 µM
- AS concentration required to produce detectable VirB10 (VirB10 expression; wild-type cells): 1 µM

SMILES: COc1cc([C@@H]2C[C@H]2CO)ccc1O (relative stereo) [(+)-trans-CP, trans-[3-(4-Hydroxy-3-methoxy-phenyl)-cyclopropyl]methanol]
- vir inducing activity (virB::lacZ β-galactosidase) [5]: virtually all the activity of the trans racemate; also recorded: active
- vir inducing activity / hypersensitivity in mutants [4]: all the inducing activity of the racemate

SMILES: COc1cc2c(c(OC)c1O)CCC2=O [D-indanone, 5-hydroxy-4,6-dimethoxyindanone]
- vir inducing activity (virB::lacZ β-galactosidase) [5]: little changed
- vir inducing activity / hypersensitivity in mutants [4]: hypersensitive

SMILES: COc1c(O)ccc2c1CCC2=O [E-indanone, 5-hydroxy-4-methoxy-1-indanone]
- vir inducing activity (virB::lacZ β-galactosidase) [5]: equivalent activity
- vir inducing activity / hypersensitivity in mutants [4]: hypersensitive

SMILES: COc1cc2c(cc1O)CCC2=O [Z-indanone, 5-hydroxy-6-methoxy-1-indanone]
- vir inducing activity (virB::lacZ β-galactosidase) [5]: equivalent activity

SMILES: COc1cc(C2CC2CO)ccc1O (stereo not drawn) [cis-CP]
- vir inducing activity (virB::lacZ β-galactosidase) [5]: equivalent activity

SMILES: COC(=O)/C=C/c1cc(OC)c2c(c1)C(C(=O)OC)C(c1ccc(O)c(OC)c1)O2 [(2R,3R)-(−)-trans-DDF, trans-dehydroferulate dimethylester, reference compound]
- vir inducing activity (virB::lacZ β-galactosidase) [5]: all the inducing activity of the racemic mixture
- vir inducing activity (virB::lacZ β-galactosidase) ([5]; listed as (−)-trans-DDF): active

SMILES: COc1cc(C(C)=O)ccc1O [AV, acetovallinone]
- kanamycin resistant growth of AB140 compared with wild-type (inducer sensitivity) [2]: not hypersensitive

SMILES: COc1ccc2[nH]c(=O)oc2c1 [6-methoxy-2H-benzoxazolin-2(3H)-one]
- activity of decomposition product (vir gene expression; under the assay conditions): inactive

SMILES: COc1ccc2c(c1)OC(O)C(=O)N2OC (centres unmarked) [compound 1]
- actual IC50 (vir gene expression; based on decomposition rates during the 8 hr assay period): nanomolar range
- inhibition of vir gene expression (β-galactosidase activity) (vir gene expression; expression induced by 100 uM acetosyringone, wild-type vir induction genes): strongly inhibits
- effect on constitutively activated VirA strain (FIG. 2) (vir gene expression; virA G665D expressing vir genes in the absence of AS): functions independently
- half-life (physchem; pH 5.5): < 240 min
- half-life (physchem; pH 7): ~10 min
- effect on induction of the occ regulon (occ regulon): unaffected
